Active and inactive are the calls of the source. The calls are words filed in the database; no cut-off is given here.

Experimental findings from ChEMBL document CHEMBL5329202, “New aryl-/heteroarylpiperazine derivatives of 1,7-dimethyl-8,9-diphenyl-4-azatricyclo[5.2.1.02,6]dec-8-ene-3,5,10-trione: Synthesis and preliminary studies of biological activities” (Bioorg Med Chem, 2023) are described below.

In test [1] the test system is PC-3. The experiment in a line: Antiproliferative activity against human PC-3 cells assessed as decrease in IL-6 level at IC50 measured after 72 hrs by ELISA assay relative to control. Further details: scale not given: the % may be the effect or the level left. In kind it is functional.
Test [2] concerns the target 5-hydroxytryptamine receptor 2A (Rattus norvegicus) (UniProt P14842). The experiment in a line: Displacement of [3H]ketanserin from Sprague-Dawley rat 5-HT2A receptor measured after 60 mins by competitive binding assay. In general terms: Displacement assays read how much labelled ligand stays bound in the presence of the test substance.
Test [3] deals with HaCaT. The experiment in a line: Induction of apoptosis in human HaCaT cells assessed as late apoptotic cells at IC50 incubated for 72 hrs by Annexin V-FITC/PI staining based flow cytometric analysis relative to control. Type of test: functional.

5-hydroxytryptamine receptor 2A (Rattus norvegicus), sequence (P14842 whole entry): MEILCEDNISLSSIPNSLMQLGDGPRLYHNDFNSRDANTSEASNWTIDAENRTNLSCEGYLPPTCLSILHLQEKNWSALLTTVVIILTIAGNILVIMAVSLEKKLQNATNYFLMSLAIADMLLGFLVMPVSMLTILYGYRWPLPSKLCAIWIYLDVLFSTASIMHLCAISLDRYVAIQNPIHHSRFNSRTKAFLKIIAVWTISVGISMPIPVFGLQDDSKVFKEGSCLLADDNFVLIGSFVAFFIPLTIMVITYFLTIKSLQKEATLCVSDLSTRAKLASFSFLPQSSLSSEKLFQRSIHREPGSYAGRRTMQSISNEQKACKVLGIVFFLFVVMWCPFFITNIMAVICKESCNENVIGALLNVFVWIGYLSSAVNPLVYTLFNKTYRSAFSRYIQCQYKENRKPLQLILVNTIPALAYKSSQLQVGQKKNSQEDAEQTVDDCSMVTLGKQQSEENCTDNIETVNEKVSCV

As for `CC12C(=O)C(C)(C(c3ccccc3)=C1c1ccccc1)C1C(=O)N(CCCCN3CCN(c4cccc(Cl)c4)CC3)C(=O)C12` (stereo not drawn), the Activity in test [1] stood at 51%.

Take `CC12C(=O)C(C)(C(c3ccccc3)=C1c1ccccc1)C1C(=O)N(CCCCN3CCN(c4ncccn4)CC3)C(=O)C12` (stereo not drawn): in test [2], the result was inactive.

Regarding `CC12C(=O)C(C)(C(c3ccccc3)=C1c1ccccc1)C1C(=O)N(CCCCN3CCN(c4ccccc4F)CC3)C(=O)C12` (stereo not drawn), the Activity in test [3] was determined as 12.3%.
